The values below come from patent US4382934A, “Isatin derivatives, processes for the preparation thereof and pharmaceutical composition comprising the same” (Fujisawa Pharmaceutical Co., Ltd., priority 1978, dated 1983).

The test system of the test is anaphylactic asthma in guinea-pigs. Briefly: Antagonism to anaphylactic asthma in guinea-pigs. In kind it is in vivo, guinea-pig (male Hartley). Conditions: 30 min before egg albumin aerosol; for Inhibitory effect of anaphylactic asthma in guinea-pig: survival more than 2 hours. As to the method: (1) Preparation of rabbit antiserum against egg albumin
Equal volumes of a saline solution of egg albumin (200 mg./ml.) and of Freund's Complete Ajuvant were mixed and emulsified. Each male New Zealand white strain rabbits, each weighing 2 to 2.5 kg., received an intramuscular injection of 0.5 ml. of the emulsion in the left and right thigh regions. One week later, they received an intradermal injection of 0.25 ml. of a saline solution of egg albumin (concentration: 20 mg./ml.) in the different four sites of the dorsal skin surface three times every other week. Blood samples were collected from the carotid artery one week after the last injection.
(2) Determination of Passive Cutaneous Anaphylaxis (PCA) titer
The level of anaphylactic anti-egg albumin antibodies in pools of sera were determined by passive cutaneous anaphylaxis (PCA) reactions using shaven Hartley strain test guinea-pigs.
Antiserum was serially diluted (two fold) in saline and 0.1 ml. of each antiserum dilution were injected intradermally into the dorsal skin surface of the test guinea-pigs. 24 Hours after intradermal sensitization,Egg albumin-specific PCA reactions were elicited by intravenous injection of 10 mg. of egg albumin in 1 ml. of 1% Evans blue dye dissolved in saline. Reactions were read and recorded as the highest dilution of serum evoking threshold PCA reactivity (5 mm diameter).
(3) Antagonism to anaphylactic asthma in guinea-pigs
Male Hartley stain guinea-pigs, weighing 305 to 400 g, were used. Animals were sensitized by an intravenous injection of rabbit antiserum against egg albumin (4000 PCA titer) with 0.5 ml./animal. After 24 hours, animals were placed individually in a plastic chamber of 5.3 liter volume. An aerosol of 5% egg albumin solution was sprayed in the chamber at a rate of 0.16 ml./min with a commercial nebulizer. The test compound was given to the animals orally 30 minutes before the challenge with the egg albumin solution. Each dose group consisted of ten animals. The inhibitory effect of the test compound was determined from the number of surviving animals more than 2 hours after spray of the antigen. The ED50 value (dose to be required 50% protection from death) was calculated according to Litchfield-Wilcoxon method.

Molecules are shown by their SMILES.

Consider `O=C1C(=O)N(CCCN2CCN(C(c3ccccc3)c3ccccc3)CC2)c2ccccc21` [1-[3-(4-Benzhydryl-1-piperazinyl)propyl]isatin], for which the “Inhibitory effect of anaphylactic asthma in guinea-pig” value is, setting by setting: (0.1 mg./kg. P.O.) 0%; (1.0 mg./kg. P.O.) 20%; (3.2 mg./kg. P.O.) 40%; (10.0 mg./kg. P.O.) 80%; (32.0 mg./kg. P.O.) 100%; (100.0 mg./kg. P.O.) 100%. Further, the ED50 (Cavia porcellus, po, 2 h, P.O., Litchfield-Wilcoxon method, read-out: ED50 (dose to be required 50% protection from death)) came to 3.4 mg/kg.

In general, ED50 refers to the dose at which the effect has come halfway, by size or by number of responders.
